In patent US8952024B2, “Herbicidal pyrimidone derivatives” (E I du Pont de Nemours and Company, priority 2009, dated 2015):

Key:
Experiment in all cases: Test B pre-/postemergence plant response
Assay type in all cases: in vivo
[1] = test system: Italian ryegrass (Lolium multiflorum)
Summary of the method: (§1)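 Visual ratings on a 0–100 scale (100 = complete control) were made versus untreated controls 13–15 days after treatment in a greenhouse. Compounds in surfactant-containing non-phytotoxic solvent were applied preemergence to seeds in loam–sand blend or postemergence to 1- to 4-leaf plants (2–18 cm).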

[2] = test system: Surinam grass (Brachiaria decumbens)
Summary of the method: as §1

[3] = test system: blackgrass (Alopecurus myosuroides)
Summary of the method: as §1

corn (Zea mays) = test system: corn (Zea mays)
Summary of the method: as §1

[4] = test system: downy bromegrass (Bromus tectorum)
Summary of the method: as §1

[5] = test system: giant foxtail (Setaria faberii)
Summary of the method: as §1

[6] = test system: johnsongrass (Sorghum halepense)
Summary of the method: as §1

kochia (Kochia scoparia) = test system: kochia (Kochia scoparia)
Summary of the method: as §1

[7] = test system: pigweed (Amaranthus retroflexus)
Summary of the method: as §1

[8] = test system: ragweed (common ragweed, Ambrosia elatior)
Summary of the method: as §1

soybean (Glycine max) = test system: soybean (Glycine max)
Summary of the method: as §1

[9] = test system: velvetleaf (Abutilon theophrasti)
Summary of the method: as §1

[10] = test system: woolly cupgrass (Eriochloa villosa)
Summary of the method: as §1

[11] = 31 g ai/ha, postemergence, scale 0 to 100, 0 is no effect, 100 is complete control
[12] = 62 g ai/ha, postemergence, 0 is no effect, 100 is complete control, 13 to 15 days
[13] = Postemergence, 125 g ai/ha, visual rating after 13 to 15 days, scale 0 (no effect) to 100 (complete control)
[14] = Postemergence, 250 g ai/ha, scale 0 to 100 (0 no effect, 100 complete control)
[15] = Preemergence, 31 g ai/ha, scale 0 to 100 (0 no effect, 100 complete control)
[16] = Preemergence, 62 g ai/ha, scale 0 to 100 (0 no effect, 100 complete control)
[17] = Preemergence, 125 g ai/ha, scale 0 to 100, 0 no effect, 100 complete control
[18] = 250 g ai/ha, Preemergence, 0 to 100 scale

CCCCc1ncc(C(=O)C2=C(O)CCCC2=O)c(=O)n1-c1ccc(C)cc1 [Compound 67]
Plant response rating, Ryegrass, Italian [1, 11]: 0
Ryegrass, Italian plant response rating (0 to 100 scale) [1, 12]: 5
Plant response rating, Ryegrass, Italian [1, 13]: 5
Plant response rating, Ryegrass, Italian [1, 14]: 5
Plant response rating, Ryegrass, Italian [1, 15]: 0
Plant response rating, Ryegrass, Italian [1, 16]: 0
Plant response rating, Ryegrass, Italian [1, 17]: 0
Plant response rating, Surinam Grass [2, 11]: 10
Surinam Grass plant response rating (0 to 100 scale) [2, 12]: 20
Plant response rating, Surinam Grass [2, 13]: 20
Plant response rating, Surinam Grass [2, 14]: 25
Plant response rating, Surinam Grass [2, 15]: 0
Plant response rating, Surinam Grass [2, 16]: 10
Plant response rating, Surinam Grass [2, 17]: 15
Plant response rating, Blackgrass [3, 11]: 0
Blackgrass plant response rating (0 to 100 scale) [3, 12]: 0
Plant response rating, Blackgrass [3, 18]: 5
Plant response rating, Blackgrass [3, 13]: 5
Plant response rating, Blackgrass [3, 14]: 10
Plant response rating, Blackgrass [3, 15]: 0
Plant response rating, Blackgrass [3, 16]: 0
Plant response rating, Blackgrass [3, 17]: 0
Plant response rating, Corn (corn (Zea mays); [11]): 5
Corn plant response rating (0 to 100 scale) (corn (Zea mays); [12]): 10
Plant response rating, Corn (corn (Zea mays); [18]): 0
Plant response rating, Corn (corn (Zea mays); [13]): 65
Plant response rating, Corn (corn (Zea mays); [14]): 75
Plant response rating, Corn (corn (Zea mays); [15]): 0
Plant response rating, Corn (corn (Zea mays); [16]): 0
Plant response rating, Corn (corn (Zea mays); [17]): 0
Plant response rating, Bromegrass, Downy [4, 11]: 0
Bromegrass, Downy plant response rating (0 to 100 scale) [4, 12]: 0
Plant response rating, Bromegrass, Downy [4, 18]: 0
Plant response rating, Bromegrass, Downy [4, 13]: 0
Plant response rating, Bromegrass, Downy [4, 14]: 5
Plant response rating, Bromegrass, Downy [4, 15]: 0
Plant response rating, Bromegrass, Downy [4, 16]: 0
Plant response rating, Bromegrass, Downy [4, 17]: 0
Plant response rating, Foxtail, Giant [5, 11]: 75
Foxtail, Giant plant response rating (0 to 100 scale) [5, 12]: 80
Plant response rating, Foxtail, Giant [5, 18]: 65
Plant response rating, Foxtail, Giant [5, 13]: 85
Plant response rating, Foxtail, Giant [5, 14]: 90
Plant response rating, Foxtail, Giant [5, 15]: 0
Plant response rating, Foxtail, Giant [5, 16]: 0
Plant response rating, Foxtail, Giant [5, 17]: 45
Plant response rating, Johnsongrass [6, 11]: 0
Johnsongrass plant response rating (0 to 100 scale) [6, 12]: 0
Plant response rating, Johnsongrass [6, 18]: 0
Plant response rating, Johnsongrass [6, 13]: 5
Plant response rating, Johnsongrass [6, 14]: 10
Plant response rating, Johnsongrass [6, 15]: 0
Plant response rating, Johnsongrass [6, 16]: 0
Plant response rating, Johnsongrass [6, 17]: 0
Plant response rating, Kochia (kochia (Kochia scoparia); [11]): 75
Kochia plant response rating (0 to 100 scale) (kochia (Kochia scoparia); [12]): 80
Plant response rating, Kochia (kochia (Kochia scoparia); [18]): 85
Plant response rating, Kochia (kochia (Kochia scoparia); [13]): 85
Plant response rating, Kochia (kochia (Kochia scoparia); [14]): 85
Plant response rating, Kochia (kochia (Kochia scoparia); [15]): 70
Plant response rating, Kochia (kochia (Kochia scoparia); [16]): 70
Plant response rating, Kochia (kochia (Kochia scoparia); [17]): 80
Plant response rating, Pigweed [7, 11]: 98
Pigweed plant response rating (0 to 100 scale) [7, 12]: 98
Plant response rating, Pigweed [7, 13]: 98
Plant response rating, Pigweed [7, 14]: 100
Plant response rating, Pigweed [7, 15]: 98
Plant response rating, Pigweed [7, 16]: 98
Plant response rating, Pigweed [7, 17]: 98
Plant response rating, Ragweed [8, 11]: 75
Ragweed plant response rating (0 to 100 scale) [8, 12]: 80
Plant response rating, Ragweed [8, 13]: 85
Plant response rating, Ragweed [8, 14]: 90
Plant response rating, Ragweed [8, 15]: 25
Plant response rating, Ragweed [8, 16]: 25
Plant response rating, Ragweed [8, 17]: 35
Plant response rating, Soybean (soybean (Glycine max); [11]): 80
Soybean plant response rating (0 to 100 scale) (soybean (Glycine max); [12]): 90
Plant response rating, Soybean (soybean (Glycine max); [13]): 98
Plant response rating, Soybean (soybean (Glycine max); [14]): 98
Plant response rating, Velvetleaf [9, 11]: 90
Velvetleaf plant response rating (0 to 100 scale) [9, 12]: 95
Plant response rating, Velvetleaf [9, 13]: 98
Plant response rating, Velvetleaf [9, 14]: 100
Plant response rating, Velvetleaf [9, 15]: 75
Plant response rating, Velvetleaf [9, 16]: 85
Plant response rating, Velvetleaf [9, 17]: 90
Plant response rating, Cupgrass, Woolly [10, 11]: 60
Cupgrass, Woolly plant response rating (0 to 100 scale) [10, 12]: 70
Plant response rating, Cupgrass, Woolly [10, 18]: 10
Plant response rating, Cupgrass, Woolly [10, 13]: 70
Plant response rating, Cupgrass, Woolly [10, 14]: 75
Plant response rating, Cupgrass, Woolly [10, 15]: 0
Plant response rating, Cupgrass, Woolly [10, 16]: 0
Plant response rating, Cupgrass, Woolly [10, 17]: 0
